The target in this assay is T1, 11β-HSD1 (Homo sapiens, UniProt P28845).
T1 construct: detecting cortisol generated from cortisterone by human liver microsomes; from tissue; host or cells: human liver microsomes
The assay can be described thus: In vitro inhibition of 11β-HSD1, HTRF detection of cortisol generated from cortisone by human liver microsomes. The conditions noted are these: 11β-HSD IC50 (nM), 1 hour at 37° C., pH 6.0, NADPH 200 μM, cortisone 80 nM, inhibition relative to carbenoxolone signal. Format: biochemical. Summed up:
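Inhibition expressed against the carbenoxolone signal and fitted to IC50 curves. Readout: HTRF competition between microsomal cortisol and XL665-labelled cortisol for Eu-cryptate anti-cortisol antibody (typically 2 h), with emission ratio 665/615 calibrated to cortisol concentration.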
(In general: In TR-FRET formats the signal depends on donor and acceptor labels being close together.)

T1 sequence (P28845 whole entry): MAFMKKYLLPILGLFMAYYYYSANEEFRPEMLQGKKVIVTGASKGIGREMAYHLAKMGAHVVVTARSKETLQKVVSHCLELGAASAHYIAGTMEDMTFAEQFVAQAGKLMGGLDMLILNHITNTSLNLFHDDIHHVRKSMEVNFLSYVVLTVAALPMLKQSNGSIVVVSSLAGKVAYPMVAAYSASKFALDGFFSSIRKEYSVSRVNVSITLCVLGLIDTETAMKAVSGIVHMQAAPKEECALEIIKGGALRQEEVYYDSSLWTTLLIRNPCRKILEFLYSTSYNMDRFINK

Regarding `CN(Cc1ccccc1)C(=O)c1ccc(C(=O)N2CC[C@@]3(C)c4cccc(O)c4C[C@@H]2C3(C)C)cc1` [Example 170, N-Benzyl-4-[(2R,6S)-10-hydroxy-6,11,11-trimethyl-1,2,5,6-tetrahydro-4H-2,6-methano-benzo[d]azocine-3-carbonyl]-N-methyl-benzamide], it took 626 nM to reach half-maximal inhibition (IC50). Next, `CCCNC(=O)c1ccc(C(=O)N2CC[C@@]3(C)c4cccc(O)c4C[C@@H]2C3(C)C)cc1` [Example 171, 4-[(2R,6S)-10-Hydroxy-6,11,11-trimethyl-1,2,5,6-tetrahydro-4H-2,6-methano-benzo[d]azocine-3-carbonyl]-N-propyl-benzamide]: 1650 nM; `C[C@@H]1[C@H]2Cc3ccc(CN)cc3[C@]1(C)CCN2C(=O)c1ccc2nc[nH]c2c1` [Example 172, [(2R,6R,11S)-8-Aminomethyl-6,11-dimethyl-1,2,5,6-tetrahydro-4H-2,6-methano-benzo[d]azocin-3-yl]-(3H-benzoimidazol-5-yl)-methanone]: 1720 nM; `CC12CCN(C(=O)c3ccc4nc[nH]c4c3)C(Cc3cc(CN)ccc31)C2(C)C` (stereo not drawn) [Example 173, (9-Aminomethyl-6,11,11-trimethyl-1,2,5,6-tetrahydro-4H-2,6-methano-benzo[d]azocin-3-yl)-(3H-benzoimidazol-5-yl)-methanone]: 1690 nM. `CC12CCN(C(=O)c3ccc4ncsc4c3)C(Cc3ccccc31)C2` (stereo not drawn) [Example 174, Benzothiazol-6-yl-(6-methyl-1,2,5,6-tetrahydro-4H-2,6-methano-benzo[d]azocin-3-yl)-methanone] had an IC50 of 406 nM. Next, `CC12CCN(C(=O)c3ccc4[nH]cnc4c3)C(Cc3cc(/C(N)=N/O)ccc31)C2(C)C` (stereo not drawn) [Example 175, 3-(1H-Benzoimidazole-5-carbonyl)-N-hydroxy-6,11,11-trimethyl-1,2,3,4,5,6-hexahydro-2,6-methano-benzo[d]azocine-9-carboxamidine]: 344 nM. For `Cc1nc(-c2ccc3c(c2)CC2N(C(=O)c4ccc5[nH]cnc5c4)CCC3(C)C2(C)C)no1` (stereo not drawn) [Example 176, (1H-Benzoimidazol-5-yl)-[6,11,11-trimethyl-9-(5-methyl-[1,2,4]oxadiazol-3-yl)-1,2,5,6-tetrahydro-4H-2,6-methano-benzo[d]azocin-3-yl]-methanone] the value was 603 nM; for `N#CC12CCN(C(=O)c3ccc4ncsc4c3)C(Cc3ccc(O)cc31)C2` (stereo not drawn) [Example 177, 3-(Benzothiazole-6-carbonyl)-8-hydroxy-2,3,4,5-tetrahydro-1H-2,6-methano-benzo[d]azocine-6-carbonitrile], 8910 nM; for `CC(=O)NCc1ccc2c(c1)CC1N(C(=O)c3ccc4nc[nH]c4c3)CCC2(C)C1(C)C` (stereo not drawn) [Example 178, N-[3-(3H-Benzoimidazole-5-carbonyl)-6,11,11-trimethyl-1,2,3,4,5,6-hexahydro-2,6-methano-benzo[d]azocin-9-ylmethyl]-acetamide], 159 nM.

Compound `CC(=O)Nc1ccc2c(c1)CC1N(C(=O)c3ccc4nc[nH]c4c3)CCC2(C)C1(C)C` (stereo not drawn) [Example 179, N-[3-(3H-Benzoimidazole-5-carbonyl)-6,11,11-trimethyl-1,2,3,4,5,6-hexahydro-2,6-methano-benzo[d]azocin-9-yl]-acetamide] returned an IC50 of 199 nM. Take `Cc1occc1C(=O)N1CC[C@@]2(C)c3cccc(O)c3C[C@@H]1C2(C)C` [Example 180, [(2R,6S)-10-Hydroxy-6,11,11-trimethyl-1,2,5,6-tetrahydro-4H-2,6-methano-benzo[d]azocin-3-yl]-(2-methyl-furan-3-yl)-methanone]: half-maximal inhibition (IC50) was put at 1320 nM. In turn, `CC12CCN(C(=O)c3ccc4nc[nH]c4c3)C(Cc3cc(NS(C)(=O)=O)ccc31)C2(C)C` (stereo not drawn) [Example 181, N-[3-(3H-Benzoimidazole-5-carbonyl)-6,11,11-trimethyl-1,2,3,4,5,6-hexahydro-2,6-methano-benzo[d]azocin-9-yl]-methanesulfonamide] registered an IC50 of 147 nM.

A word on the IC50: it is the point on the concentration scale where inhibition reaches its midpoint. Low values mean greater potency, high ones weaker potency.
